Source: patent US10213449B2, “Compositions and methods for treating medulloblastoma” (The Board of Trustees of the Leland Stanford Junior …, priority 2016, dated 2019)
“Also recorded” adds a separate entry of the source.

Columns and labels:
[1] = tested on: Hh signaling in NIH 3T3 cells overexpressing GLI2 (HA-Gli2ΔN); test: RT-qPCR of Gli1 in NIH 3T3 cells expressing Gli2ΔN (epistasis study); format: cell-based, mouse; conditions: 3T3 cells with forced expression of HA-Gli2ΔN
Excerpt: Epistasis studies were next performed to determine where in the hedgehog pathway CK2 acts. The effect of TBB was examined: (i) in NIH 3T3s stimulated with SAG, a SMO agonist, (ii) in Sufu−/− mouse embryonic fibroblasts (MEF), and (iii) in NIH 3T3 cells overexpressing GLI2 (FIG. 3d-3f).
Sufu^−/− MEFs (conditional deletion of exons 4-8) were kindly provided by Pao-Tien Chang (UCSF). SAG (S7779), GDC-0449 (Vismodegib, S1082) and CX-4945 (Silmitasertib, S2248) was purchased from SelleckChem.com. TBB was purchased from EMD (218697). Shh-N conditional medium was made using a HEK 293 cell line that stably secretes ShhN as previously described. Myc-GL12-DN (17649, pCS2-MT-GLI2-deltaN) plasmid was purchased from Addgene (Cambridge, Mass., USA). […]
NIH3T3s or SUFU−/− MEFs were plated in 6 well plates at 400,000 cells/well in 10% FBS media constituted of DMEM (Invitrogen11960-069) supplemented with 10% FBS (Hyclone Labs SH30070.02), pen/strep (Life Technologies 15140-122), sodium pyruvate (Invitrogen 11360-070) and glutamax (Invitrogen 35050-061). […] RNA was quantified on a nanodrop spectrophotometer (nanoddrop technologies ND-2000C). Transcript quantification was performed using a TaqMan RNA-to-Ct 1-Step Kit (Life technologies, 4392656) and the Applied Biosystems 7500 RT-PCR system as per the manufacturer's instructions. […]

[2] = tested on: Gli2 binding at Gli target genes in GNPs; test: H3K27ac and Gli2 Chipseq in GNPs purified from TBB-injected P7 mice; format: in vivo, mouse; conditions: two injections of TBB (30 mg/kg) over 18 h
Protocol: Brd4 occupancy at both Gli1 and Gli2 promoters was blocked by the addition of TBB (FIG. 3e). Given that Brd4's primary role as a reader of H3K27ac histone modifications, whether the effect of TBB on Gli target genes correlated with H3K27ac in GNP on a genome-wide scale was next examined. GNPs were purified from P7 mice following two injections of TBB over an 18 h period. Chipseq using H3K27ac and Gli2 antibodies were performed and Gli target genes were binned into either ‘high’ or low H3K27ac′ groups. […] For example, Gli1 had low H3K27ac in GNPs but high H3K27ac in NIH 3T3's. In contrast, Gli2 and Ptch both had high H3K27ac marks in both GNPs and NIH 3T3's.
Wildtype CD1-Elite (Charles River strain 482) P7 mice were randomized to control or treatment groups then given two injections of DMSO (control) or TBB (30 mg/kg) q12h×2. Mice were sacrificed and GNPs were isolated as described in “GNP isolation”. Chomatin immunoprecipitation was performed as previously described. GNPs were cross-linked in 1% formaldehyde for 10 minutes at RT then fixation was stopped by adding 2.5M glycine for 10 minutes. […] ChIP and input DNA was quantified using Qubit DS DNA HS assay as per manufacturer's protocol (ThermoFisher Q32851). […] Library was quantified via Qubit DS DNA HS assay and library quality was determined using an Agilent 2100 Bioanalyzer. […]

Structure (SMILES): Brc1c(Br)c(Br)c2[nH]nnc2c1Br [TBB, 4,5,6,7-tetrabromo-2H-benzotriazole]
- Gli1 mRNA levels [1]: inhibited; also recorded: dose dependent loss of Gli1 expression
- Gli binding at 'high' H3K27ac marked Gli target genes compared to low H3K27ac marked genes [2]: statistically significant decrease
